From US20070134261A1, “Effectors of innate immunity” (priority 2001, published 2007)
Residues, ends and D or L forms follow the SMILES beside them.

Test system: primary human macrophages
Test: Polynucleotide arrays of primary human macrophages treated with SEQ ID NO: 6 (Tables 27, 28)
Format: cell-based
Settings: 50 μg/ml, 4 h

In the case of `CC[C@H](C)[C@H](NC(=O)[C@@H]1CCCN1C(=O)[C@H](CS)NC(=O)[C@H](CCCNC(=N)N)NC(=O)[C@@H](N)CC(C)C)C(=O)N[C@@H](C)C(=O)N1CCC[C@H]1C(=O)N[C@H](C(=O)N[C@H](C(=O)N1CCC[C@H]1C(=O)N[C@H](C(=O)N[C@@H](CS)C(=O)N[C@@H](CCCCN)C(=O)N[C@@H](CCCCN)C(=O)O)C(C)C)[C@@H](C)CC)C(C)C` [SEQ ID NO: 6] (H-LRCPIAPVIPVCKK-OH; N-terminus and C-terminus assumed), the “Ratio peptide treated:control, Unknown” value (A433612) is reported as 5.0, the “Ratio peptide treated:control, KIAA1278 protein” value (AB03104) is reported as 2.9 and the “Ratio peptide treated:control, proteasome 26S subunit non-ATPase 13” value (AB009398) is reported as 0.44. The “Ratio peptide treated:control, KIAA0532 protein” value (AB011104) was 2.8, the “Ratio peptide treated:control, KIAA0592 protein” value (AB011164) was 4.0 and the “Ratio peptide treated:control, IL-1 receptor-like 1” value (AB012701) was 0.35. For the same compound, the “Ratio peptide treated:control, interferon alpha-inducible protein” value (AB019565) was 0.35, the “Ratio peptide treated:control, KIAA0842 protein” value (AB020649) was 0.13 and the “Ratio peptide treated:control, KIAA0922 protein” value (AB023139) was 2.1. The “Ratio peptide treated:control, KIAA1013 protein” value (AB023230) was 3.4, the “Ratio peptide treated:control, protease, serine, 21” value (AB031331) was 2.0 and the “Ratio peptide treated:control, hypothetical protein FLJ20689” value (AB032978) was 2.9. For the same compound, the “Ratio peptide treated:control, cofactor required for Sp1 transcriptional activation subunit 3” value (AB033042) was 0.23, the “Ratio peptide treated:control, pancreatic zymogen granule membrane associated protein” value (AB035541) was 3.7 and the “Ratio peptide treated:control, Unknown” value (AB037838) was 0.14. For the same compound, the “Ratio peptide treated:control, CDC14 homolog A” value (AF000367) was 3.8, the “Ratio peptide treated:control, TNF receptor superfamily, member 10b” value (AF016266) was 0.37 and the “Ratio peptide treated:control, TNF superfamily, member 15” value (AF039390) was 0.46. For the same compound, the “Ratio peptide treated:control, transcription factor 21” value (AF047419) was 5.4, the “Ratio peptide treated:control, proteasome subunit alpha type, 7” value (AF054185) was 0.40 and the “Ratio peptide treated:control, Granulin” value (AF055008) was 0.14. For the same compound, the “Ratio peptide treated:control, matrix metalloproteinase 23A” value (AF056200) was 2.7, the “Ratio peptide treated:control, chromosome condensation 1-like” value (AF060219) was 4.8 and the “Ratio peptide treated:control, Unknown” value (AF068289) was 2.8. The “Ratio peptide treated:control, histone fold proteinCHRAC17” value (AF070640) was 3.8, the “Ratio peptide treated:control, NADH dehydrogenase 1 alpha subcomplex, 10” value (AF087661) was 2.1 and the “Ratio peptide treated:control, potassium voltage-gated channel KQT-like subfamily member 4” value (AF105202) was 3.9. For the same compound, the “Ratio peptide treated:control, FYN-binding protein” value (AF198052) was 3.3, the “Ratio peptide treated:control, c-Cbl-interacting protein” value (AF230904) was 2.4 and the “Ratio peptide treated:control, hypothetical protein FLJ20070” value (AK000077) was 3.4. For the same compound, the “Ratio peptide treated:control, hypothetical protein FLJ20495” value (AK000502) was 3.5, the “Ratio peptide treated:control, Unknown” value (AK001843) was 8.2 and the “Ratio peptide treated:control, peroxisome proliferative activated receptor delta” value (AL022721) was 0.46. For the same compound, the “Ratio peptide treated:control, proteasome 26S subunit non-ATPase, 10” value (AL031177) was 0.32, the “Ratio peptide treated:control, Unknown” value (AL031864) was 2.9 and the “Ratio peptide treated:control, Unknown” value (AL049263) was 0.06. For the same compound, the “Ratio peptide treated:control, DKFZP586B2420 protein” value (AL050143) was 5.9, the “Ratio peptide treated:control, Unknown” value (AL050370) was 0.38 and the “Ratio peptide treated:control, Unknown” value (AL109678) was 5.6. The “Ratio peptide treated:control, Unknown” value (AL117643) was 2.7, the “Ratio peptide treated:control, eukaryotic translation initiation factor 4A, isoform 2” value (AL137681) was 3.4 and the “Ratio peptide treated:control, Unknown” value (AL137715) was 4.4. For the same compound, the “Ratio peptide treated:control, proteasome subunit alpha type, 4” value (D00763) was 0.49, the “Ratio peptide treated:control, proteasome 26S subunit ATPase, 2” value (D11094) was 0.49 and the “Ratio peptide treated:control, defender against cell death 1” value (D15057) was 0.46. The “Ratio peptide treated:control, proteasome subunit beta type, 4” value (D26600) was 0.29, the “Ratio peptide treated:control, proteasome subunit beta type, 5” value (D29011) was 0.33 and the “Ratio peptide treated:control, proteasome 26S subunit non-ATPase 8” value (D38047) was 0.28. The “Ratio peptide treated:control, proteasome subunit beta type 7” value (D38048) was 0.22, the “Ratio peptide treated:control, KIAA0152 gene product” value (D63486) was 0.17 and the “Ratio peptide treated:control, Cryptochrome 1” value (D83702) was 3.8. For the same compound, the “Ratio peptide treated:control, TGFB1-induced anti-apoptotic factor 1” value (D86970) was 0.19, the “Ratio peptide treated:control, MAP kinase kinase 3” value (D87116) was 0.37 and the “Ratio peptide treated:control, proteasome 26S subunit ATPase, 1” value (L02426) was 0.49. The “Ratio peptide treated:control, MAP kinase kinase 1” value (L11284) was 2.4, the “Ratio peptide treated:control, MAP kinase 14” value (L35263) was 2.2 and the “Ratio peptide treated:control, interferon receptor 2” value (L42243) was 2.5. For the same compound, the “Ratio peptide treated:control, IL-1 receptor-associated kinase 1” value (L76191) was 0.45, the “Ratio peptide treated:control, LINE retrotransposable element 1” value (M22333) was 4.0 and the “Ratio peptide treated:control, TNF receptor superfamily member 1B” value (M32315) was 0.29. The “Ratio peptide treated:control, proteasome 26S subunit, ATPase, 3” value (M34079) was 0.35, the “Ratio peptide treated:control, proteasome subunit beta type, 6” value (M34079) was 0.38 and the “Ratio peptide treated:control, lymphocyte antigen” value (M38056) was 3.2. For the same compound, the “Ratio peptide treated:control, H1 histone family, member 4” value (M60748) was 3.0, the “Ratio peptide treated:control, Cathepsin D” value (M63138) was 0.36 and the “Ratio peptide treated:control, protein kinase, cAMP-dependent, regulatory, type I, beta” value (M65066) was 2.9. For the same compound, the “Ratio peptide treated:control, TGF, beta-induced,” value (M77349) was 0.37, the “Ratio peptide treated:control, S100 calcium-binding protein A4” value (M80563) was 0.31 and the “Ratio peptide treated:control, cathepsin E” value (M84424) was 2.7. For the same compound, the “Ratio peptide treated:control, actinin, alpha 3” value (M86407) was 6.9, the “Ratio peptide treated:control, interferon regulatory factor 2” value (NM 002199) was 2.0 and the “Ratio peptide treated:control, calumenin” value (NM_001219) was 2.9. The “Ratio peptide treated:control, glutathione peroxidase 3” value (NM_002084) was 0.15, the “Ratio peptide treated:control, LPS-induced TNF-alpha factor” value (NM_004862) was 0.41 and the “Ratio peptide treated:control, bone morphogenetic protein 1” value (NM_006129) was 2.1. For the same compound, the “Ratio peptide treated:control, MAP kinase kinase kinase 2” value (NM_006609) was 0.32, the “Ratio peptide treated:control, SDF receptor 1” value (NM_012428) was 0.35 and the “Ratio peptide treated:control, TERF1 (TRF1)-interacting nuclear factor 2” value (NM_012461) was 4.2. The “Ratio peptide treated:control, nuclear receptor binding protein” value (NM_013392) was 0.38, the “Ratio peptide treated:control, cyclin-dependent kinase inhibitor 1B” value (S76988) was 2.2 and the “Ratio peptide treated:control, POU domain, class 4, transcription factor 2” value (U06233) was 2.8. For the same compound, the “Ratio peptide treated:control, MAP kinase kinase kinase kinase 2” value (U07349) was 0.46, the “Ratio peptide treated:control, MAP kinase-activated protein kinase 2” value (U12779) was 0.34 and the “Ratio peptide treated:control, caspase 3” value (U13737) was 0.35. The “Ratio peptide treated:control, MAP kinase kinase 5” value (U25265) was 0.44, the “Ratio peptide treated:control, E2F transcription factor 5, p130-binding” value (U31556) was 3.5 and the “Ratio peptide treated:control, TNF superfamily member 10” value (U37518) was 0.46. The “Ratio peptide treated:control, integrin-linked kinase” value (U40282) was 0.13, the “Ratio peptide treated:control, guanine nucleotide binding protein, gamma transducing activity polypeptide 1” value (U41492) was 3.3 and the “Ratio peptide treated:control, mucosal vascular addressin cell adhesion molecule 1” value (U43628) was 3.2. For the same compound, the “Ratio peptide treated:control, 1-acylglycerol-3-phosphate O-acyltransferase 1” value (U56417) was 4.0, the “Ratio peptide treated:control, caspase 7” value (U67319) was 0.49 and the “Ratio peptide treated:control, apoptosis inhibitor 4” value (U75285) was 4.2. For the same compound, the “Ratio peptide treated:control, TNF receptor superfamily, member 14” value (U81232) was 0.26, the “Ratio peptide treated:control, bone morphogenetic protein receptor, type IB” value (U89326) was 2.1 and the “Ratio peptide treated:control, transferrin receptor” value (X01060) was 0.42. For the same compound, the “Ratio peptide treated:control, protease inhibitor 1 alpha-1-antitrypsin” value (X01683) was 0.40, the “Ratio peptide treated:control, Cathepsin L” value (X12451) was 0.44 and the “Ratio peptide treated:control, cytochrome c oxidase subunit Vic” value (X13238) was 0.30. For the same compound, the “Ratio peptide treated:control, cathepsin H” value (X16832) was 0.47, the “Ratio peptide treated:control, protein kinase C, alpha” value (X52479) was 2.4 and the “Ratio peptide treated:control, glycoprotein IX” value (X52997) was 3.4. The “Ratio peptide treated:control, glypican 1” value (X54232) was 3.2, the “Ratio peptide treated:control, jun D proto-oncogene” value (X56681) was 0.35 and the “Ratio peptide treated:control, proteasome subunit alpha type, 6” value (X59417) was 0.31. For the same compound, the “Ratio peptide treated:control, Sp3 transcription factor” value (X68560) was 3.6, the “Ratio peptide treated:control, Vacuolar proton-ATPase, subunit D; V-ATPase, subunit D” value (X71490) was 4.0 and the “Ratio peptide treated:control, chymotrypsin-like protease” value (X71877) was 2.9. The “Ratio peptide treated:control, phosphorylase kinase alpha 1” value (X73874) was 7.1, the “Ratio peptide treated:control, zinc finger protein 266” value (X78924) was 2.2 and the “Ratio peptide treated:control, ribosomal protein L11” value (X79234) was 0.32. The “Ratio peptide treated:control, translational inhibitor protein p14.5” value (X95384) was 3.0, the “Ratio peptide treated:control, c-fos induced growth factor” value (Y12864) was 2.3 and the “Ratio peptide treated:control, disintegrin protease” value (Y13323) was 0.21. The “Ratio peptide treated:control, matrix metalloproteinase 7” value (Z11887) was 0.49, the “Ratio peptide treated:control, proteoglycan 2” value (Z26248) was 9.3 and the “Ratio peptide treated:control, matrix metalloproteinase 14” value (Z48481) was 0.32. The “Ratio peptide treated:control, POU domain, class 2, associating factor 1” value (Z49194) was 2.8 and the “Ratio peptide treated:control, protease inhibitor 12” value (Z81326) was 0.48.
